In paper PMC3183052, “Immunoprotectivity of HLA-A2 CTL Peptides Derived from Respiratory Syncytial Virus Fusion Protein in HLA-A2 Transgenic Mouse” (PLoS ONE, 2011):

How the values were obtained:
[1] = test system: splenocytes from HLA-A*0201 transgenic C57BL/6 mice; experiment: IFN-γ ELISPOT of splenocytes restimulated with peptide; type: cell-based, mouse; details: for IFN-γ ELISPOT, RSV: splenocytes of HLA-Tg B6 mice primed and boosted i.n. with 10^4 pfu RSV-B1; for IFN-γ ELISPOT, RSV / IFN-γ ELISPOT, rAd-F0: restimulated with 2 µg peptide, representative of two experiments, five mice per group; for IFN-γ ELISPOT, rAd-F0: splenocytes of HLA-Tg B6 mice primed and boosted i.n. with 10^7 pfu rAd-F0; for IFN-γ level in restimulated splenocytes (ELISPOT, text grading): splenocytes of rAd-F0- or RSV B1-primed and boosted HLA-Tg B6 mice, high = over 100 spots, moderate = over 50 spots
Method: (§1) To screen the immunodominance of epitopic peptide in the induction of RSV-F specific Th1/Th2 expression, HLA-A*0201 transgenic C57BL/6 mice were anesthetized with isoflurane and immunized with 1×10^7 pfu/50 µL of rAd-F0 or rAd-LacZ or 1×10^4 live RSV B1 via the intranasal (i.n.) route. Twenty days later, the mice were given booster immunization i.n. with the same dose. After 10 days of boost, mice were sacrificed and splenocytes were isolated for the cytokine ELISPOT assay. For peptide-based vaccination, transgenic mice were immunized subcutaneously (s.c.) with 50 µg of the individual synthetic peptides emulsified in 25 µL of incomplete Freund's adjuvant (IFA) (Sigma-Aldrich) and then boosted after 10 days s.c. with the same dose of the respective peptides mixed with IFA. Mice were sacrificed 7 days after the booster and splenocytes were isolated for in vitro peptide-restimulation. For challenge studies, 10^7 pfu of live RSV-B1 was administered i.n. seven days after the booster immunization with peptide vaccines. Mice were sacrificed on day 4 post-challenge and the lung tissues were collected and subjected to further analysis by flow cytometry, ELISA, CTL assay and immunohistochemistry. Mice body weight was monitored daily.
(§2) […] RBC-free splenocyte suspensions prepared from the individual mice were seeded in individual wells of 96-well filtration plates (Millipore) precoated with capturing monoclonal antibodies for murine IL-2, IL-4 or IFN-γ (0.5 µg/ well) (eBioscience) and blocked with conditioned medium (CM) for 1 hour at room temperature. The splenocytes were added with the individual RSV F 9-mer synthetic peptides (2 µg each) or GLC-9 dissolved in CM (100 µL). The splenocytes added with Con A (10 µg/mL) were used as positive control. Unstimulated splenocytes were used as negative control. The plates were kept in a 37°C incubator equilibrated with 5% CO2 for 48 hours. The individual wells of the ELISPOT plates were washed three times with washing buffer (0.05% tween20 in PBS, PBS-T), and then 0.2 µg of the corresponding biotinylated detection monoclonal antibodies specific for IL-2, IL-4 and IFN-γ were added to detect the respective cytokines. After 2 hours of incubation at room temperature, the plates were washed and 100 µl of streptavidin-alkaline phosphatase (1∶ 250 dilution) was added to the individual wells, and the plates were incubated at room temperature for 45 minutes. Finally, the plates were washed four times with the wash buffer, and 100 µl of AEC (3-amine-9-ethylcarbazole, Sigma-Aldrich) substrate was added to each well and allowed to react for 30 minutes at room temperature in the dark. The plates were then washed with water, air-dried overnight, and the spots per well were scored using the immunospot counting reader (C.T.L. IMMUNOSPOT, CELLULAR TECHNOLOGY LTD). Results were expressed as the number of cytokine-secreting cells per 5×10^5 splenocytes seeded in the initial culture.
(§3) Figure 1 Induction of IFN-γ and IL-2 in splenocytes from RSV F peptide immunized HLA-A*0201 transgenic mice upon secondary recall. Splenocytes harvested on day 30 from HLA-A-Tg B6 mice primed and boosted at 20 days interval intranasally with 10^7 pfu of rAd-F0 (□) or 10^4 pfu of RSV-B1 (▪)were restimulated with 2 µg of the individual RSV F peptide or 10 µg/ml Con A for 5 days in the presence of murine IL-2 . After stimulation, 5×10^5 splenocytes were seeded to anti-IFN-γ (A) or anti-IL-2 (B) capture antibody coated ELISPOT plates for 2 days for ELISPOT assay as described in Materials and Methods. Cytokine-positive immunospots were developed and the results are expressed as the number of immunospots +/−2 standard deviations for each experimental group. Data is representative of results derived from two independent experiments, each with five mice per group.

HLA-A*0201 = biological target: T1, HLA-A*0201 (Homo sapiens, UniProt P04439, D140Y/D185E/D98H/E176V/E277Q/G131W/G231S/I119V/I121R/I166T/I218V/L300P/L318F/N151K/N90K/P208A/P217A/Q86G/Q94H/R138H/R169H/T345S); experiment: T2 cell-stabilization assay (T2-binding); details: for T2-binding Ratio of MFI: T2 cells 5×10^5, peptide 50 µg/mL + β2-microglobulin 5 µg/mL, 28°C 16–18 h, then brefeldin A 10 µg/mL 37°C 3 h, FITC anti-HLA-A2, flow cytometry, MFI relative to negative control HCV C55-74 (set as 1); for binding affinity, MFI higher than the baseline: T2 cell-based binding assay, baseline = negative control HCV C55-74, called modest binding affinity
T1 construct: Human T2 cells (purchased from the American Type Culture Collection, ATCC) (ATCC No. CRL-1992) expressing the HLA-A*0201 gene; endogenous in cells; host or cells: human T2 cells (ATCC CRL-1992)
Method: T2 cells (5×10^5) cultured in 96-well U-bottom plates were incubated with the individual 9-mer synthetic peptides (50 µg/mL) and β2-microglobulin (5 µg/mL; Sigma-Aldrich) at 28°C for 16–18 hours. Subsequently, brefeldin A (10 µg/mL) was added and the cells were incubated at 37°C for another 3 hours, then washed and stained with fluorescence isothiocyanate (FITC)-conjugated mouse anti-human HLA-A2 antibody (SeroTec). Peptide-loaded T2 cells were acquired and analyzed on the FACScan flow cytometer using CellQuest software (Becton Dickinson). GLC-9 peptide was used as positive control (PC). The mean fluorescence intensity (MFI) represents the binding affinity of each peptide compared to MFI (set as MFI = 1) obtained from negative control (NC), which is T2 cells loaded with HCV peptide C55-74.
Twenty-five 9-mer synthetic peptides derived from the RSV F glycoprotein sequence presumed to encompass HLA-A*0201 binding motifs were synthesized (Table 1). Each was tested for its ability to bind HLA-A*0201 molecules by T2 cell-based binding assay (data not shown). The relative mean fluorescence intensity (MFI) obtained from the positive control (PC) peptide derived from Epstein-Barr virus capsid protein (GLC-9, a previously defined HLA-A*0201-restricted CTL epitope) was twofold (MFI = 1.96) compared to the baseline MFI = 1 obtained from the negative control (NC) treated with an unrelated peptide HCV C55-74 (a C57BL/6-specific CD4 epitope). […] The remaining peptides had no detectable binding to the HLA-A*0201 molecules. Apparently, the different MFIs generated by binding of RSV F-derived peptides to HLA-A*0201 reflects on the binding specificity of different peptides to a given HLA molecule.

[2] = test system: splenocytes from HLA-A*0201 transgenic C57BL/6 mice; experiment: IL-2 ELISPOT of splenocytes restimulated with peptide; type: cell-based, mouse; details: for IL-2 ELISPOT, RSV: splenocytes of HLA-Tg B6 mice primed and boosted i.n. with 10^4 pfu RSV-B1; for IL-2 ELISPOT, RSV / IL-2 ELISPOT, rAd-F0: restimulated with 2 µg peptide, representative of two experiments, five mice per group; for IL-2 ELISPOT, rAd-F0: splenocytes of HLA-Tg B6 mice primed and boosted i.n. with 10^7 pfu rAd-F0; for IL-2 level in restimulated splenocytes (ELISPOT, text grading): splenocytes of rAd-F0- or RSV B1-primed and boosted HLA-Tg B6 mice, high = over 100 spots, moderate = over 50 spots
Method: as §1, §2, §3

splenocytic CD8+ T cells = experiment: CFSE proliferation of CD8+ T cells after in vitro peptide restimulation; type: cell-based, mouse; details: mice immunized s.c. twice with 50 µg peptide in IFA; splenocytes restimulated with 10 µg/mL peptide for 8 days
Method: (§4) To screen the immunodominance of epitopic peptide in the induction of RSV-F specific Th1/Th2 expression, HLA-A*0201 transgenic C57BL/6 mice were anesthetized with isoflurane and immunized with 1×10^7 pfu/50 µL of rAd-F0 or rAd-LacZ or 1×10^4 live RSV B1 via the intranasal (i.n.) route. Twenty days later, the mice were given booster immunization i.n. with the same dose. After 10 days of boost, mice were sacrificed and splenocytes were isolated for the cytokine ELISPOT assay. […] Mice body weight was monitored daily.
(§5) The splenocytes were isolated, labeled with 5-(6)-carboxyfluorescein diacetate succinimidyl ester (CFSE) (Sigma-Aldrich) and stimulated in vitro with 10 µg/mL of the synthetic peptides for 4 or 8 days. Proliferation of splenocytic CD4^+ and CD8^+ T cells was analyzed by flow cytometry (BD FACSCalibur) using PE-Cy5-labeled specific antibody against CD4 (eBioscience) or CD8 (eBioscience), respectively. Cell division index (CDI), a ratio of CFSE-diluted CD4^+ or CD8^+ T cells stimulated by peptide to CFSE-diluted unstimulated CD4^+ or CD8^+ T cells, was calculated as shown below; [drawing 1] […]
(§6) Figure 2 Epitope-specific CD4^+ and CD8^+ T-cell activation in peptide-immunized HLA-A*0201 transgenic mice. […] Proliferation of CD4^+ (A) or CD8^+ (B) lymphocytes in response to the different CD8 epitopes was analyzed by flow cytometry using anti-CD4 or CD8 antibodies conjugated with PE-Cy5. […]

splenocytic CD4+ T cells = experiment: CFSE proliferation of CD4+ T cells after in vitro peptide restimulation; type: cell-based, mouse; details: mice immunized s.c. twice with 50 µg peptide in IFA; splenocytes restimulated with 10 µg/mL peptide for 8 days
Method: as §4, §5, §6

Row | Substance | IFN-γ ELISPOT, RSV [1] | IFN-γ ELISPOT, rAd-F0 [1] | IFN-γ level in restimulated splenocytes (ELISPOT, text grading) [1] | T2-binding Ratio of MFI (HLA-A*0201) | IL-2 ELISPOT, RSV [2] | IL-2 ELISPOT, rAd-F0 [2] | IL-2 level in restimulated splenocytes (ELISPOT, text grading) [2] | binding affinity, MFI higher than the baseline (HLA-A*0201) [%] | proliferation of CD8+ T cells (cell division index) (splenocytic CD8+ T cells) | proliferation of CD4+ T cells (cell division index) (splenocytic CD4+ T cells)
1 | 22: HLA-A*0201-restricted 9-mer synthetic peptide from F protein of RSV-B1 strain (VIIVILLSL) [compound 22] | 49 cytokine-secreting cells per 5×10^5 splenocytes | 88.5 cytokine-secreting cells per 5×10^5 splenocytes | over 50 spots | 0.97 | 55 cytokine-secreting cells per 5×10^5 splenocytes | 21.5 cytokine-secreting cells per 5×10^5 splenocytes | over 50 spots | – | – | –
2 | 24: HLA-A*0201-restricted 9-mer synthetic peptide from F protein of RSV-B1 strain (LLSLIAVGL) [compound 24] | 0 cytokine-secreting cells per 5×10^5 splenocytes | 84.5 cytokine-secreting cells per 5×10^5 splenocytes | over 50 spots | 1.71 | 42 cytokine-secreting cells per 5×10^5 splenocytes | 5 cytokine-secreting cells per 5×10^5 splenocytes | – | – | – | –
3 | 25: HLA-A*0201-restricted 9-mer synthetic peptide from F protein of RSV-B1 strain (SLIAVGLLL) [compound 25] | 96 cytokine-secreting cells per 5×10^5 splenocytes | 41 cytokine-secreting cells per 5×10^5 splenocytes | over 50 spots | 1.42 | 44.5 cytokine-secreting cells per 5×10^5 splenocytes | 31 cytokine-secreting cells per 5×10^5 splenocytes | – | ~10 | – | –
4 | KIMTSKTDV [peptide 17, HLA-A*0201-restricted 9-mer synthetic peptide from F protein of RSV-B1 strain] | 2.5 cytokine-secreting cells per 5×10^5 splenocytes | 24.5 cytokine-secreting cells per 5×10^5 splenocytes | – | 0.95 | 6.5 cytokine-secreting cells per 5×10^5 splenocytes | 24.5 cytokine-secreting cells per 5×10^5 splenocytes | – | – | could not induce proliferation | insignificant proliferation
5 | LLWVLLLWV [peptide 2, HLA-A*0201-restricted 9-mer synthetic peptide from F protein of RSV-B1 strain] | 46.5 cytokine-secreting cells per 5×10^5 splenocytes | 46.5 cytokine-secreting cells per 5×10^5 splenocytes | over 50 spots | 0.97 | 42 cytokine-secreting cells per 5×10^5 splenocytes | 34.5 cytokine-secreting cells per 5×10^5 splenocytes | – | – | – | –
6 | TLLLWVLLL [peptide 1, HLA-A*0201-restricted 9-mer synthetic peptide from F protein of RSV-B1 strain] | 69.5 cytokine-secreting cells per 5×10^5 splenocytes | 33.5 cytokine-secreting cells per 5×10^5 splenocytes | over 50 spots | 1.19 | 39.5 cytokine-secreting cells per 5×10^5 splenocytes | 85.5 cytokine-secreting cells per 5×10^5 splenocytes | over 50 spots | ~10 | – | –
